Reference: EP0193257A1, “Control of micro-organisms in water-containing compositions” (NIPA LABORATORIES, LTD., priority 1985, dated 1986)

Key:
Assay type in all cases: cell-based
Klebsiella oxytoca [1] = assay: Bactericidal effect in 27% sodium lauryl ether sulphate (challenge test)
Protocol: (§1) Sodium lauryl ether sulphate (SLES) is a commonly used anionic detergent, a major active component of shampoos, foam baths and general purpose cleaners. The bactericidal activity of some compounds covered by the general formula given above was evaluated at final levels of 0.10% (w/w) and 0. 15% (w/w) in a 27% active solution of SLES (confirmed as containing no other preservatives). The activity of these compounds was evaluated in comparison with 0.30% methyl-4-hydroxybenzoate and an unpreserved control sample.
(§2) The test organisms were three species of resistant Gram negative bacteria which had previously been isolated from contaminated detergent products. 20g portions of test solutions were inoculated with 0.1 ml pure culture of the test bacteria and the time taken to achieve a total lethal effect against each species was determined by sub-culture at regular intervals into sterile dilution media (containing preservative inact ivators) and then into sterile Nutrient Broth, which was incubated for 4 days at 32°C to determine the presence or absence of surviving bacteria.

Pseudomonas aeruginosa [2] = assay: as above
Protocol: as §1, §2

Serratia marcescens [3] = assay: as above
Protocol: as §1, §2

Candida albicans = assay: Microbial challenge test in cosmetic cream
Protocol: (§3) Emulsions are susceptible to contamination and spoilage by-a wide range of micro-organisms. 3.5-Dibromo-4-hydroxybenzaldehyde (DBHB), as a non-limiting illustration of the invention, was evaluated in a typical cosmetic cream for microbiocidal efficacy. The cosmetic cream had the following formulation: […]
(§4) This cream was prepared by heating the oil and water phases to 70°C, mixing and stirring until cool. The DBHB was incorporated into the cream at final levels of 0.05%, 0.10% and 0.15% by dissolving into the emulsion components at the heating stage. A microbial challenge test was performed to determine the micro-biocidal activity of the test product. The following test organisms were inoculated in pure culture into portions of sterile cream samples and the time taken to achieve a total lethal effect was determined by regular sub-culture into recovery media (with preservative inactivators) which were incubated and observed for growth of survivors.

Escherichia coli [4] = assay: Microbial challenge test in cosmetic cream
Protocol: as §3, §4

Pencicillium expansum = assay: Microbial challenge test in cosmetic cream
Protocol: as §3, §4

Pseudomonas aeruginosa [5] = assay: Microbial challenge test in cosmetic cream
Protocol: as §3, §4

Pseudomonas putida [6] = assay: Microbial challenge test in cosmetic cream
Protocol: as §3, §4

Serratia marcescens [7] = assay: Microbial challenge test in cosmetic cream
Protocol: as §3, §4

Staphylococcus aureus = assay: Microbial challenge test in cosmetic cream
Protocol: as §3, §4

Escherichia coli [8] = assay: Challenge test in Polysorbate 80 solutions
Protocol: (§5) Many antimicrobial preservatives are inactivated by polyalkoxylated nonionic emulsifiers which are widely used in emulsification of cosmetic, pharmaceutical and industrial emulsions. […] Normal use levels of Polysorbate 80 are 1-5%.
(§6) 3,5-Dibromo-4-hydroxybenzaldehyde was evaluated at 0.05%, 0.10% and 0.15% in 5% and 10% Polysorbate 80 solutions by a challenge test of the type described in Example 2.

Klebsiella oxytoca [9] = assay: Challenge test in Polysorbate 80 solutions
Protocol: as §5, §6

Pseudomonas aeruginosa [10] = assay: Challenge test in Polysorbate 80 solutions
Protocol: as §5, §6

Pseudomonas putida [11] = assay: Challenge test in Polysorbate 80 solutions
Protocol: as §5, §6

Serratia marcescens [12] = assay: Challenge test in Polysorbate 80 solutions
Protocol: as §5, §6

[13] = test system: mixed culture of 7 strains of Gram negative bacteria; assay: Survivor plate count in shampoo formulation after challenge; settings: shampoo with 0.05% citric acid alone (Control 1)
Protocol: A shampoo formulation was prepared to the following formula: […]
Various additions were made to portions of this shampoo in sterile bottles under aseptic conditions, as follows: • 1. 0.20% of 30% DCHB in propylene glycol (0.06% active DCHB) • 2. 0.20% of 30% DCHB in propylene glycol + 0.05% citric acid • 3. 0.05% citric acid (control 1) • 4. No addition (control 2)
Each of these systems was inoculated with a mixed culture of 7 strains of Gram negative bacteria, at an initial inocullum level of 9.0x10^7 colony forming units per g. At 30 mins, 1 hour, 2 hours, 6 hours, 24 hours and 7 days after inoculation the total number of survivors in each sample portion were determined by serial dilution and plate counting; with the following results: […]

[14] = 0.05%, Polysorbate 80 level 10%
[15] = 0.10%, Polysorbate 80 level 10%
[16] = 0.15%, Polysorbate 80 level 10%

SMILES: Cc1cc(C=O)cc(C)c1O [3,5-Dimethyl-4-hydroxybenzaldehyde, 3,5,-Dimethyl-4-hydroxybenzaldehyde]
- Time to achieve total lethal effect against: K oxytoca (Klebsiella oxytoca [1]; 0.10% in 27% SLES): 3 h
- Time to achieve total lethal effect against: K oxytoca (Klebsiella oxytoca [1]; 0.15% in 27% SLES): <1 h
- Time to achieve total lethal effect against: P aeruginosa (Pseudomonas aeruginosa [2]; 0.10% in 27% SLES): 1 hour hours
- Time to achieve total lethal effect against: P aeruginosa (Pseudomonas aeruginosa [2]; 0.15% in 27% SLES): <1 h
- Time to achieve total lethal effect against: S marcescens (Serratia marcescens [3]; 0.10% in 27% SLES): 1 days
- Time to achieve total lethal effect against: S marcescens (Serratia marcescens [3]; 0.15% in 27% SLES): 0.12 days

SMILES: O=Cc1ccc(O)c(Cl)c1 [3-Chloro-4-hydroxybenzaldehyde]
- Time to achieve total lethal effect against: K oxytoca (Klebsiella oxytoca [1]; 0.10% in 27% SLES): 6 h
- Time to achieve total lethal effect against: K oxytoca (Klebsiella oxytoca [1]; 0.15% in 27% SLES): 1 h
- Time to achieve total lethal effect against: P aeruginosa (Pseudomonas aeruginosa [2]; 0.10% in 27% SLES): 3 h
- Time to achieve total lethal effect against: P aeruginosa (Pseudomonas aeruginosa [2]; 0.15% in 27% SLES): 1 h
- Time to achieve total lethal effect against: S marcescens (Serratia marcescens [3]; 0.10% in 27% SLES): 1 days
- Time to achieve total lethal effect against: S marcescens (Serratia marcescens [3]; 0.15% in 27% SLES): 0.25 days

SMILES: O=Cc1cc(Br)c(O)c(Br)c1 [DBHB, 3,5-Dibromo-4-hydroxybenzaldehyde]
- Time to achieve total lethal effect against: K oxytoca (Klebsiella oxytoca [1]; 0.10% in 27% SLES): 3 h
- Time to achieve total lethal effect against: K oxytoca (Klebsiella oxytoca [1]; 0.15% in 27% SLES): <1 h
- Time to achieve total lethal effect against: P aeruginosa (Pseudomonas aeruginosa [2]; 0.10% in 27% SLES): 1 hour hours
- Time to achieve total lethal effect against: P aeruginosa (Pseudomonas aeruginosa [2]; 0.15% in 27% SLES): <1 h
- Time to achieve total lethal effect against: S marcescens (Serratia marcescens [3]; 0.10% in 27% SLES): 0.12 days
- Time to achieve total lethal effect against: S marcescens (Serratia marcescens [3]; 0.15% in 27% SLES): <1 hour hours
- Time taken to achieve total lethal effect against: C albicans (Candida albicans; 0.05% in cosmetic cream): 3 h
- Time taken to achieve total lethal effect against: C albicans (Candida albicans; 0.10% in cosmetic cream): <1 h
- Time taken to achieve total lethal effect against: C albicans (Candida albicans; 0.15% in cosmetic cream): <1 h
- Time taken to achieve total lethal effect against: E coli (Escherichia coli [4]; 0.05% in cosmetic cream): 3 h
- Time taken to achieve total lethal effect against: E coli (Escherichia coli [4]; 0.10% in cosmetic cream): 3 h
- Time taken to achieve total lethal effect against: E coli (Escherichia coli [4]; 0.15% in cosmetic cream): <1 h
- Time taken to achieve total lethal effect against: Pen expansum (Pencicillium expansum; 0.05% in cosmetic cream): 4 days
- Time taken to achieve total lethal effect against: Pen expansum (Pencicillium expansum; 0.10% in cosmetic cream): 2 days
- Time taken to achieve total lethal effect against: Pen expansum (Pencicillium expansum; 0.15% in cosmetic cream): 1 days
- Time taken to achieve total lethal effect against: P aeruginosa (Pseudomonas aeruginosa [5]; 0.05% in cosmetic cream): 3 h
- Time taken to achieve total lethal effect against: P aeruginosa (Pseudomonas aeruginosa [5]; 0.10% in cosmetic cream): 3 h
- Time taken to achieve total lethal effect against: P aeruginosa (Pseudomonas aeruginosa [5]; 0.15% in cosmetic cream): <1 h
- Time taken to achieve total lethal effect against: P putida (Pseudomonas putida [6]; 0.05% in cosmetic cream): 3 h
- Time taken to achieve total lethal effect against: P putida (Pseudomonas putida [6]; 0.10% in cosmetic cream): <1 h
- Time taken to achieve total lethal effect against: P putida (Pseudomonas putida [6]; 0.15% in cosmetic cream): <1 h
- Time taken to achieve total lethal effect against: S marcescens (Serratia marcescens [7]; 0.05% in cosmetic cream): 3 h
- Time taken to achieve total lethal effect against: S marcescens (Serratia marcescens [7]; 0.10% in cosmetic cream): 3 h
- Time taken to achieve total lethal effect against: S marcescens (Serratia marcescens [7]; 0.15% in cosmetic cream): 1 h
- Time taken to achieve total lethal effect against: S aureus (Staphylococcus aureus; 0.05% in cosmetic cream): 1 h
- Time taken to achieve total lethal effect against: S aureus (Staphylococcus aureus; 0.10% in cosmetic cream): <1 h
- Time taken to achieve total lethal effect against: S aureus (Staphylococcus aureus; 0.15% in cosmetic cream): <1 h
- Time taken to achieve total lethal effect against: E coli (Escherichia coli [8]; 0.05%, Polysorbate 80 level 5%): 6 h
- Time taken to achieve total lethal effect against: E coli (Escherichia coli [8]; [14]): 3 h
- Time taken to achieve total lethal effect against: E coli (Escherichia coli [8]; 0.10%, Polysorbate 80 level 5%): <1 h
- Time taken to achieve total lethal effect against: E coli (Escherichia coli [8]; [15]): 1 h
- Time taken to achieve total lethal effect against: E coli (Escherichia coli [8]; 0.15%, Polysorbate 80 level 5%): <1 h
- Time taken to achieve total lethal effect against: E coli (Escherichia coli [8]; [16]): <1 h
- Time taken to achieve total lethal effect against: K oxytoca (Klebsiella oxytoca [9]; 0.05%, Polysorbate 80 level 5%): 6 h
- Time taken to achieve total lethal effect against: K oxytoca (Klebsiella oxytoca [9]; [14]): 3 h
- Time taken to achieve total lethal effect against: K oxytoca (Klebsiella oxytoca [9]; 0.10%, Polysorbate 80 level 5%): 1 h
- Time taken to achieve total lethal effect against: K oxytoca (Klebsiella oxytoca [9]; [15]): 1 h
- Time taken to achieve total lethal effect against: K oxytoca (Klebsiella oxytoca [9]; 0.15%, Polysorbate 80 level 5%): <1 h
- Time taken to achieve total lethal effect against: K oxytoca (Klebsiella oxytoca [9]; [16]): <1 h
- Time taken to achieve total lethal effect against: P aeruginosa (Pseudomonas aeruginosa [10]; 0.05%, Polysorbate 80 level 5%): 3 h
- Time taken to achieve total lethal effect against: P aeruginosa (Pseudomonas aeruginosa [10]; [14]): 24 h
- Time taken to achieve total lethal effect against: P aeruginosa (Pseudomonas aeruginosa [10]; 0.10%, Polysorbate 80 level 5%): <1 h
- Time taken to achieve total lethal effect against: P aeruginosa (Pseudomonas aeruginosa [10]; [15]): 3 h
- Time taken to achieve total lethal effect against: P aeruginosa (Pseudomonas aeruginosa [10]; 0.15%, Polysorbate 80 level 5%): <1 h
- Time taken to achieve total lethal effect against: P aeruginosa (Pseudomonas aeruginosa [10]; [16]): <1 h
- Time taken to achieve total lethal effect against: P putida (Pseudomonas putida [11]; 0.05%, Polysorbate 80 level 5%): 3 h
- Time taken to achieve total lethal effect against: P putida (Pseudomonas putida [11]; [14]): 1 h
- Time taken to achieve total lethal effect against: P putida (Pseudomonas putida [11]; 0.10%, Polysorbate 80 level 5%): <1 h
- Time taken to achieve total lethal effect against: P putida (Pseudomonas putida [11]; [15]): 1 h
- Time taken to achieve total lethal effect against: P putida (Pseudomonas putida [11]; 0.15%, Polysorbate 80 level 5%): <1 h
- Time taken to achieve total lethal effect against: P putida (Pseudomonas putida [11]; [16]): <1 h
- Time taken to achieve total lethal effect against: S marcescens (Serratia marcescens [12]; 0.05%, Polysorbate 80 level 5%): 24 h
- Time taken to achieve total lethal effect against: S marcescens (Serratia marcescens [12]; [14]): 24 h
- Time taken to achieve total lethal effect against: S marcescens (Serratia marcescens [12]; 0.10%, Polysorbate 80 level 5%): 1 h
- Time taken to achieve total lethal effect against: S marcescens (Serratia marcescens [12]; [15]): 3 h
- Time taken to achieve total lethal effect against: S marcescens (Serratia marcescens [12]; 0.15%, Polysorbate 80 level 5%): 1 h
- Time taken to achieve total lethal effect against: S marcescens (Serratia marcescens [12]; [16]): 1 h

SMILES: COC(=O)c1ccc(O)cc1 [Methyl-4-hydroxybenzoate, reference compound]
- Time to achieve total lethal effect against: K oxytoca (Klebsiella oxytoca [1]; 0.3% in 27% SLES): 504 h
- Time to achieve total lethal effect against: P aeruginosa (Pseudomonas aeruginosa [2]; 0.3% in 27% SLES): 336 h
- Time to achieve total lethal effect against: S marcescens (Serratia marcescens [3]; 0.3% in 27% SLES): >28 days

SMILES: O=C(O)CC(O)(CC(=O)O)C(=O)O [citric acid, reference compound]
- Mixed culture - colony forming units/g after: 30 mins [13]: 9.0x10^7 colony forming units/g
- Mixed culture - colony forming units/g after: 1 hour [13]: 3.5x10^7 colony forming units/g
- Mixed culture - colony forming units/g after: 2 hours [13]: 6.5x10^7 colony forming units/g
- Mixed culture - colony forming units/g after: 6 hours [13]: >1x10^8 colony forming units/g
- Mixed culture - colony forming units/g after: 24 hours [13]: >1x10^8 colony forming units/g
- Mixed culture - colony forming units/g after: 7 days [13]: >1x10^8 colony forming units/g
